Results as given in patent US20250270202A1, “SUBSTITUTED 4-AMINOISOINDOLINE COMPOUND, PREPARATION METHOD THEREFOR, PHARMACEUTICAL COMPOSITION THEREOF, AND USE THEREOF” (SHANGHAI INSTITUTE OF MATERIA MEDICA, CHINESE ACADEMY OF …, priority 2022, published 2025).
Where two headings read alike, the source gives them in different places. One block for each compound: values may come before it.

What was measured:
Format in all cases: cell-based
[1] = system: MV-4-11 cells; assay: Inhibition of MV-4-11 cell proliferation (MTS, 7 days)
Protocol: MV-4-11 cells were cultured in IMDM with 10% fetal bovine serum, collected, and diluted to the appropriate cell concentration for a 7-day treatment period. A 96-well plate was used, and 180 μL of cell suspension was added to each well, resulting in a cell count of 2,000 per well. For the control wells, 20 μL of DMSO at a final concentration of 0.2% was added. The compounds were diluted from a 10 mM stock solution in a five-fold gradient, and 20 μL was added to the compound wells (with a final DMSO concentration of 0.2%). The cells were incubated in a 37° C., 5% CO2 incubator for 7 days. After preparing the reaction solution using the MTS reagent kit (Promega, G5430), 20 μL was added to each well, and the cells were incubated in the incubator for 3-4 hours. The absorbance at 490 nm was measured using a microplate reader, with the absorbance at 690 nm as the background value. The final data was calculated as OD490-OD690. The inhibition rate of the compounds was calculated using the formula: […]
The IC50 values for proliferation inhibition were calculated using GraphPad Prism 5.0. The experiments were repeated three times, with three parallel experiments for each, and the mean and standard deviation were calculated.
The cell activity test results are shown in Table 3: A indicates IC50<1 μM, B indicates 1 µM≤IC50≤20 μM, and C indicates IC50>20 μM.

[2] = system: MM.1S cells; assay: Effect of the compound on MM.1S cell proliferation (MTS, 7 days)
Protocol: MM.1S cells were cultured in 1640 medium supplemented with 10% fetal bovine serum, then collected and diluted to the desired cell concentration after 7 days of treatment. A total of 180 μL of cell suspension was added to each well in a 96-well cell plate, ensuring 20,000 cells per well. For the control group, 20 μL of 0.2% DMSO was added to each well. Compounds were diluted in a 5-step gradient from a 10 mM stock solution, and 20 μL of each dilution was added to the compound-containing wells (with a final DMSO concentration of 0.2%). The cells were incubated in a 37° C., 5% CO2 incubator for 7 days. Afterward, 20 μL of the MTS reagent (Promega, G5430) was added to each well, followed by incubation for 3-4 hours in a 37° C., 5% CO2 incubator. Absorbance at 490 nm was measured using a microplate reader, with 690 nm absorbance as the background. The final raw data was calculated as OD490-OD690. The compound inhibition rate was calculated using the formula: […]
The IC50 for the compound's proliferative inhibition was fitted using GraphPad Prism 5.0. The experiment was repeated three times, and the average and standard deviation were calculated using three parallel experiments per trial.

[3] = system: Mino cells; assay: Inhibition of cell proliferation of Mino cells (MTS, 3 days)
Protocol: Mino cells were cultured with RPMI-1640 medium supplemented with 15% fetal bovine serum, and collected. The cell concentration was diluted according to a 3-day treatment period, and 90 μL of the cell suspension was added to each well of a 96-well plate, resulting in 8000 cells per well. For control wells, 10 μL of DMSO at a final concentration of 0.2% was added. The compounds were diluted in a 5-fold gradient from a 10 mM stock solution, and 10 μL of each compound solution was added to the experimental wells (with a final DMSO concentration of 0.2%). The cells were incubated in a 37° C., 5% CO2 incubator for 3 days. After preparing the reaction mixture using the MTS reagent kit (Promega, G5430), 20 μL was added to each well, and the cells were incubated for 3-4 hours at 37° C., 5% CO2.
The absorbance at 490 nm was read using a microplate reader, with the absorbance at 690 nm used as the background. The final raw data was calculated as OD490-OD690. The inhibition rate of the compounds was calculated using the formula: Inhibition rate=(OD DMSO−OD compound)/(OD DMSO−OD blank)×100%. The IC50 values for cell proliferation inhibition of the compounds were fitted using GraphPad Prism 5.0. The experiment was repeated three times, with the average and standard deviation calculated from three parallel experiments each time.

[4] = Homo sapiens, MV4-11, 168 h, 7 days, MTS, Table 3, read-out: MV-4-11 Cells Inhibition Activity IC50
[5] = Homo sapiens, MM1.S, 168 h, 7 days, MTS, Table 1, read-out: MM.1S Cells Inhibition Activity IC50
[6] = Homo sapiens, MINO, 72 h, 3 days, MTS, Table 2, read-out: Mino Cells Inhibition Activity IC50
[7] = Homo sapiens, MV4-11, Table 4, values in nM, read-out: Inhibitory Activity of Compounds on Cell Proliferation MV-4-11 IC50
[8] = Homo sapiens, MM1.S, Table 4, read-out: Inhibitory Activity of Compounds on Cell Proliferation MM.1S IC50
[9] = Homo sapiens, MINO, Table 4, read-out: Inhibitory Activity of Compounds on Cell Proliferation Mino IC50

SMILES: O=C1CCC(N2C(=O)c3cccc(NCc4cnc(-c5ccc(OC6CC6)cc5)s4)c3C2=O)C(=O)N1 (stereo not drawn) [Example 103, 4-(((2-(4-Cyclopropoxyphenyl)thiazol-5-yl)methyl)amino)-2-(2,6-Dioxopiperidine-3-yl)isoindoline-1,3-dione]
IC50 [1, 4]: 1000 to 20000 nM
IC50 [2, 5]: < 15 nM
IC50 [3, 6]: > 120 nM

SMILES: O=C1CCC(N2C(=O)c3cccc(NCc4cnc(C5CCN(C(=O)c6ccc(F)cc6)CC5)o4)c3C2=O)C(=O)N1 (stereo not drawn) [Example 5]
IC50 [1, 4]: 1000 to 20000 nM
IC50 [2, 5]: 15 to 30 nM
IC50 [3, 6]: > 120 nM

SMILES: O=C1CCC(N2Cc3c(NCc4cn(-c5ccc(Cl)cc5)nn4)cccc3C2=O)C(=O)N1 (stereo not drawn) [Example Ctrl-4, reference compound]
IC50 [1, 7]: > 20000 nM
IC50 [2, 8]: > 15 nM
IC50 [3, 9]: > 5000 nM

SMILES: N#Cc1ccc(-c2ncc(CNc3cccc4c3C(=O)N(C3CCC(=O)NC3=O)C4=O)s2)cc1 (stereo not drawn) [Example 33, 4-(5-(((2-(2,6-dioxopiperidin-3-yl)-1,3-dioxoisoindolin-4-yl)amino)methyl)thiazol-2-yl)benzonitrile]
IC50 [1, 4]: < 1000 nM
IC50 [2, 5]: < 15 nM
IC50 [3, 6]: 60 to 120 nM

SMILES: O=C1CCC(N2C(=O)c3cccc(OCc4cn(-c5ccc(OC(F)(F)F)cc5)nn4)c3C2=O)C(=O)N1 (stereo not drawn) [Prior Art Disclosed Compound-3, reference compound]
IC50 [1, 7]: > 20000 nM
IC50 [2, 8]: > 20000 nM
IC50 [3, 9]: 680 nM

SMILES: CC(C)(C)C(=O)N1CCC(c2ncc(CNc3cccc4c3C(=O)N(C3CCC(=O)NC3=O)C4=O)o2)CC1 (stereo not drawn) [Example 9]
IC50 [1, 4]: < 1000 nM
IC50 [1, 7]: 782 nM
IC50 [2, 5]: < 15 nM
IC50 [2, 8]: 8.8 nM
IC50 [3, 6]: > 120 nM
IC50 [3, 9]: 141 nM

SMILES: C[C@@H]1CN(Cc2ncc(CNc3cccc4c3C(=O)N(C3CCC(=O)NC3=O)C4=O)o2)C[C@H](C)O1 (stereo partly drawn) [Example 79, 4-(((2-(((2R,6S)-2,6-Dimethylmorpholino)methyl)oxazol-5-yl)methyl)amino)-2-(2,6-Dioxopiperidin-3-yl)isoindoline-1,3-dione]
IC50 [1, 4]: < 1000 nM
IC50 [2, 5]: > 150 nM
IC50 [3, 6]: > 120 nM

SMILES: N#Cc1ccc(N2CCN(Cc3ncc(CNc4cccc5c4C(=O)N(C4CCC(=O)NC4=O)C5=O)o3)CC2)c(F)c1 (stereo not drawn) [Example 81]
IC50 [1, 4]: 1000 to 20000 nM
IC50 [2, 5]: 30 to 150 nM
IC50 [3, 6]: > 120 nM

SMILES: O=C1CCC(N2Cc3c(NCc4cnc(-c5ccc(OC(F)(F)F)cc5)o4)cccc3C2=O)C(=O)N1 (stereo not drawn) [Prior Art Disclosed Compound-1, reference compound]
IC50 [1, 7]: > 20000 nM
IC50 [2, 8]: > 20 nM
IC50 [3, 9]: > 4800 nM

SMILES: O=C1CCC(N2C(=O)c3cccc(NCc4cnc(C5CCN(C(=O)C6(C(F)(F)F)CCC6)CC5)o4)c3C2=O)C(=O)N1 (stereo not drawn) [Example 4]
IC50 [1, 4]: < 1000 nM
IC50 [2, 5]: < 15 nM
IC50 [3, 6]: < 60 nM

SMILES: N#Cc1cccc(-c2ncc(CNc3cccc4c3C(=O)N(C3CCC(=O)NC3=O)C4=O)s2)c1 (stereo not drawn) [Example 30]
IC50 [1, 4]: 1000 to 20000 nM
IC50 [2, 5]: 15 to 30 nM
IC50 [3, 6]: > 120 nM

SMILES: O=C1CCC(N2C(=O)c3cccc(NCc4cnc(-c5ccc(OC(F)(F)F)cc5)s4)c3C2=O)C(=O)N1 (stereo not drawn) [Example 35]
IC50 [1, 4]: < 1000 nM
IC50 [2, 5]: < 15 nM
IC50 [3, 6]: < 60 nM

SMILES: CC1(C(=O)N2CCC(c3ncc(CNc4cccc5c4C(=O)N(C4CCC(=O)NC4=O)C5=O)o3)CC2)CCCCC1 (stereo not drawn) [Example 10]
IC50 [1, 4]: 1000 to 20000 nM
IC50 [2, 5]: < 15 nM
IC50 [3, 6]: 60 to 120 nM

Further lines, with some results ahead:

IC50 [1, 4]: < 1000 nM
IC50 [2, 5]: < 15 nM
SMILES: O=C1CCC(N2C(=O)c3cccc(NCc4cnc(-c5ccc(Cl)cc5)s4)c3C2=O)C(=O)N1 (stereo not drawn) [Example 32]
IC50 [3, 6]: 60 to 120 nM

IC50 [1, 4]: < 1000 nM
IC50 [2, 5]: 30 to 150 nM
SMILES: O=C1CCC(N2C(=O)c3cccc(NCc4ncc(-c5ccccc5Cl)o4)c3C2=O)C(=O)N1 (stereo not drawn) [Example 66, 4-(((5-(2-Chlorophenyl)oxazol-2-yl)methyl)amino)-2-(2,6-Dioxopiperidin-3-yl)isoindolin-1,3-dione]
IC50 [3, 6]: > 120 nM

IC50 [1, 4]: < 1000 nM
IC50 [2, 5]: < 15 nM
SMILES: O=C1CCC(N2C(=O)c3cccc(NCc4cnc(-c5ccccc5F)o4)c3C2=O)C(=O)N1 (stereo not drawn) [Example 71, 2-(2,6-Dioxopiperidin-3-yl)-4-(((2-(2-Fluorophenyl)oxazol-5-yl)methyl)amino)isoindolin-1,3-dione]
IC50 [3, 6]: < 60 nM

IC50 ([1]; 7 days, MTS, Table 3, read-out: MV-4-11 Cells Inhibition Activity IC50): < 1000 nM
IC50 ([2]; 7 days, MTS, Table 1, read-out: MM.1S Cells Inhibition Activity IC50): < 15 nM
SMILES: O=C1CCC(N2C(=O)c3cccc(NCc4cnc(-c5ccccc5Cl)o4)c3C2=O)C(=O)N1 (stereo not drawn) [Example 92, 4-(((2-(2-Chlorophenyl)oxazol-5-yl)methyl)amino)-2-(2,6-Dioxopiperidine-3-yl)isoindoline-1,3-dione]
IC50 ([3]; 3 days, MTS, Table 2, read-out: Mino Cells Inhibition Activity IC50): > 120 nM

IC50 [1, 4]: 1000 to 20000 nM
IC50 [2, 5]: 15 to 30 nM
SMILES: O=C1CCC(N2C(=O)c3cccc(NCc4nnc(-c5ccccc5)o4)c3C2=O)C(=O)N1 (stereo not drawn) [Example 98, 2-(2,6-Dioxopiperidine-3-yl)-4-(((5-Phenyl-1,3,4-oxadiazol-2-yl)methyl)amino)isoindoline-1,3-dione]
IC50 [3, 6]: > 120 nM

IC50 [1, 4]: < 1000 nM
IC50 [2, 5]: < 15 nM
SMILES: O=C1CCC(N2C(=O)c3cccc(NCc4cnc(-c5ccccc5Cl)o4)c3C2=O)C(=O)N1 (stereo not drawn) [Example 27]
IC50 [3, 6]: 60 to 120 nM

IC50 [1, 4]: < 1000 nM
IC50 [2, 5]: < 15 nM
SMILES: O=C1CCC(N2C(=O)c3cccc(NCc4cnc(-c5ccc(Br)cc5)o4)c3C2=O)C(=O)N1 (stereo not drawn) [Example 23]
IC50 [3, 6]: > 120 nM

IC50 [1, 4]: < 1000 nM
IC50 [2, 5]: < 15 nM
SMILES: COc1ccc(-c2ncc(CNc3cccc4c3C(=O)N(C3CCC(=O)NC3=O)C4=O)o2)cc1 (stereo not drawn) [Example 16]
IC50 [3, 6]: < 60 nM

IC50 [1, 4]: < 1000 nM
IC50 [2, 5]: < 15 nM
SMILES: O=C1CCC(N2C(=O)c3cccc(NCc4cnc(-c5ccc(C(F)(F)F)cc5)o4)c3C2=O)C(=O)N1 (stereo not drawn) [Example 57]
IC50 [3, 6]: > 120 nM

IC50 [1, 4]: 1000 to 20000 nM
IC50 [2, 5]: < 15 nM
SMILES: O=C1CCC(N2C(=O)c3cccc(NCc4cnc(-c5cccc(Cl)c5Cl)o4)c3C2=O)C(=O)N1 (stereo not drawn) [Example 74, 4-(((2-(2,3-Dichlorophenyl)oxazol-5-yl)methyl)amino)-2-(2,6-Dioxopiperidin-3-yl)isoindolin-1,3-dione]
IC50 [3, 6]: > 120 nM

IC50 [1, 4]: < 1000 nM
IC50 [2, 5]: 30 to 150 nM
SMILES: O=C1CCC(N2C(=O)c3cccc(NCc4cnc(-c5ccccc5Cl)s4)c3C2=O)C(=O)N1 (stereo not drawn) [Example 69, 4-(((2-(2-Chlorophenyl)thiazol-5-yl)methyl)amino)-2-(2,6-Dioxopiperidin-3-yl)isoindolin-1,3-dione]
IC50 [3, 6]: > 120 nM

IC50 [1, 4]: < 1000 nM
IC50 [2, 5]: < 15 nM
SMILES: Cc1ccc(-c2ncc(CNc3cccc4c3C(=O)N(C3CCC(=O)NC3=O)C4=O)s2)cc1 (stereo not drawn) [Example 29]
IC50 [3, 6]: > 120 nM

IC50 [1, 4]: 1000 to 20000 nM
IC50 [2, 5]: > 150 nM
SMILES: O=C1CCC(N2C(=O)c3cccc(NCc4ncc(-c5ccccc5C(F)(F)F)o4)c3C2=O)C(=O)N1 (stereo not drawn) [Example 62]
IC50 [3, 6]: > 120 nM

IC50 [1, 4]: 1000 to 20000 nM
IC50 [2, 5]: < 15 nM
SMILES: Cc1ccccc1-c1ncc(CNc2cccc3c2C(=O)N(C2CCC(=O)NC2=O)C3=O)o1 (stereo not drawn) [Example 21]
IC50 [3, 6]: > 120 nM
